Measurements: article PMC9855386, “Obtaining a Monoclonal Antibody against a Novel Prometryn-Like Hapten and Characterization of Its Selectivity for Triazine Herbicides” (Biosensors, 2022)

What was measured:
[1] = test system: 7D4 mAb (mouse monoclonal anti-prometryn antibody); assay: ic-ELISA cross-reactivity of the 7D4 mAb with triazines; format: binding; conditions: for Cross-Reactivity: relative to prometryn = 100%
Method: (§1) The ic-ELISA method was used to screen the best-performing fusion mouse sera. They were used to establish the standard curve of antibodies by detecting the supernatant of positive cells. The buffer required for ic-ELISA was the same as previously reported. The specific steps of the operation are as follows: (1) The coated antigen was added to the microplate by diluting it with the required coating solutions (CBS, pH 9.6, 0.05 mol/L). Each well contained 100 µL, which was incubated at 37 °C for three h before being washed three times with washing buffer (PBST, PBS containing 0.1% Tween-20). (2) With sample dilution buffer (PBSTG, PBST containing 0.1% gelatin), the standard prometryn sample and the antiserum/antibody from mice were diluted to the required concentration. The microplate was incubated for 30 min at 37 °C with 50 µL of diluted antiserum or antibody and standard samples of various concentrations. PBST was used three times to wash the dishes. (3) Then, 100 µL of PBSTG-diluent IgG HRP (labeled goat anti-mouse IgG with HRP) was added to each well. After 30 min at 37 °C, the plate was cleaned three times with PBST. (4) Each well was incubated for 15 min in the dark at 25 °C with 100 µL of TMB color developing solution. To stop the reaction, 50 µL of the hydrochloric acid solution was added to each well. The absorbance at OD450 nm was measured with a TECAN Infinite M200 PRO microplate reader from Männedorf, Switzerland.
(§2) The ic-ELISA method was used to determine the ideal antibody and antigen mix. The coating antigen and antibody concentration used in the experiment was 1 mg/mL. The dilution multiples of the coating were 1 × 10^3, 2 × 10^3, 4 × 10^3, and 8 × 10^3. The prometryn standard was 1000 ng/mL. The best concentration combination of antigen and antibody was selected to establish the standard curve of the antibody. Prometryn standards were diluted to 1000, 500, 250, 125, 62.5, 31.25, 15.625, 7.8125, 3.90625, and 0 ng/mL, with PBSTG for subsequent ic-ELISA experiments. The standard curve was determined by ic-ELISA. […] Each measured OD value in the curve is the average of three independent repeats. The 7D4 mAb’s inhibition rate was well linearly correlated with the prometryn concentration. […] The 7D4 mAb type was identified as IgG1 using a mouse antibody isotyping kit from Sigma®, St. Louis, MO, USA.
Eleven triazine herbicides were selected to determine their cross-reactivity with 7D4 mAb. […] The cross-reaction rate with the other seven triazines was less than 1%. The hybridoma cell line 7D4 screened in this study can specifically recognize prometryn. […] The cross-reaction rate may vary depending on the immunoassay format and the competitive hapten preparation used.

7D4 mAb = assay: ic-ELISA optimal combination of coated antigen and antibody (Table S3); format: binding, mouse; conditions: prometryn 1000 ng/mL
Method: as §1, §2

CSc1nc(NC(C)C)nc(NC(C)C)n1 [Prometryn, 2-methylthio-4,6-di(isopropylamino)-1,3,5-triazobenzene]
IC50 ([1]; ic-ELISA, analyte 1000-15.625 and 0 ng/mL): 3.901 ng/mL
Cross-Reactivity [1]: 100%
Cross-Reactivity ([1]; listed as prometryn): 100%
IR (inhibition rate) (7D4 mAb; dilution of immunogen 1×103, dilution of serum 1.6×104): 94%
IR (inhibition rate) (7D4 mAb; dilution of immunogen 1×103, dilution of serum 2×103): 97%
IR (inhibition rate) (7D4 mAb; dilution of immunogen 1×103, dilution of serum 3.2×104): 92%
IR (inhibition rate) (7D4 mAb; dilution of immunogen 1×103, dilution of serum 4×103): 98%
IR (inhibition rate) (7D4 mAb; dilution of immunogen 1×103, dilution of serum 8×103): 97%
IR (inhibition rate) (7D4 mAb; dilution of immunogen 2×103, dilution of serum 1.6×104): 92%
IR (inhibition rate) (7D4 mAb; dilution of immunogen 2×103, dilution of serum 2×103): 98%
IR (inhibition rate) (7D4 mAb; dilution of immunogen 2×103, dilution of serum 3.2×104): 85%
IR (inhibition rate) (7D4 mAb; dilution of immunogen 2×103, dilution of serum 4×103): 97%
IR (inhibition rate) (7D4 mAb; dilution of immunogen 2×103, dilution of serum 8×103): 96%
IR (inhibition rate) (7D4 mAb; dilution of immunogen 4×103, dilution of serum 1.6×104): 81%
IR (inhibition rate) (7D4 mAb; dilution of immunogen 4×103, dilution of serum 2×103): 97%
IR (inhibition rate) (7D4 mAb; dilution of immunogen 4×103, dilution of serum 3.2×104): 71%
IR (inhibition rate) (7D4 mAb; dilution of immunogen 4×103, dilution of serum 4×103): 95%
IR (inhibition rate) (7D4 mAb; dilution of immunogen 4×103, dilution of serum 8×103): 90%
IR (inhibition rate) (7D4 mAb; dilution of immunogen 8×103, dilution of serum 1.6×104): 67%
IR (inhibition rate) (7D4 mAb; dilution of immunogen 8×103, dilution of serum 2×103): 93%
IR (inhibition rate) (7D4 mAb; dilution of immunogen 8×103, dilution of serum 3.2×104): 55%
IR (inhibition rate) (7D4 mAb; dilution of immunogen 8×103, dilution of serum 4×103): 90%
IR (inhibition rate) (7D4 mAb; dilution of immunogen 8×103, dilution of serum 8×103): 82%
